# Results from PMC6109843, “Novel Quinazolinone Inhibitors of ALK2 Flip between Alternate Binding Modes: Structure–Activity Relationship, Structural Characterization, Kinase Profiling, and Cellular Proof of Concept” (Journal of Medicinal Chemistry, 2018).
# How the values were obtained:
# Experiment in all cases: DiscoverX scanEDGE kinase panel
# Type in all cases: binding
# Details in all cases: Cmpd Conc 1000 nM, read-out: % Ctrl
# BMPR1B (ALK6) = target: T1, BMPR1B (ALK6) (Homo sapiens, UniProt O00238)
# T1 construct: purchased DiscoverX (DiscoveRx) KINOMEscan scanEDGE / KdELECT
# Source text: (§1) We hypothesized that inhibitors of the normal and flipped modes would display distinct selectivity profiles.
# (§2) 1. 16 and 21 kinome selectivity data
# (§3) (P – phosphorylated; nP – nonphosphorylated; % Ctrl values show the % of DNAEtagged
# (§4) kinase which was not displaced from a solid supported ligand by a test compound relative to
# (§5) untreated control, quantified by qPCR).
# (§6) Please note: ALKs 1, 2, 3, 4, 5 and 6 are listed by their gene symbols: ACVRL1 (ALK1), ACVR1
# (§7) (ALK2), BMPR1A (ALK3), ACVR1B (ALK4), TGFBR1 (ALK5) and BMPR1B (ALK6)
# (§8) Cmpd DiscoverX Gene Symbol Entrez Gene Symbol % Ctrl Cmpd Conc (nM)
# EGFR = target: T2, EGFR (Homo sapiens, UniProt P00533)
# T2 construct: purchased DiscoverX (DiscoveRx) KINOMEscan scanEDGE / KdELECT
# Source text: as §1, §2, §3, §4, §5, §6, §7, §8
# SRC = target: T3, SRC (Homo sapiens, UniProt P12931)
# T3 construct: purchased DiscoverX (DiscoveRx) KINOMEscan scanEDGE / KdELECT
# Source text: as §1, §2, §3, §4, §5, §6, §7, §8
# PIK3C2B = target: T4, PIK3C2B (Homo sapiens, UniProt O00750)
# T4 construct: purchased DiscoverX (DiscoveRx) KINOMEscan scanEDGE / KdELECT
# Source text: as §1, §2, §3, §4, §5, §6, §7, §8
# BMPR2 = target: T5, BMPR2 (Homo sapiens, UniProt Q13873)
# T5 construct: purchased DiscoverX (DiscoveRx) KINOMEscan scanEDGE / KdELECT
# Source text: as §1, §2, §3, §4, §5, §6, §7, §8
# BMPR1A (ALK3) = target: T6, BMPR1A (ALK3) (Homo sapiens, UniProt P36894)
# T6 construct: purchased DiscoverX (DiscoveRx) KINOMEscan scanEDGE / KdELECT
# Source text: as §1, §2, §3, §4, §5, §6, §7, §8
# CDK11 = target: T7, CDK11 (Homo sapiens, UniProt Q9BWU1)
# T7 construct: purchased DiscoverX (DiscoveRx) KINOMEscan scanEDGE / KdELECT
# Source text: as §1, §2, §3, §4, §5, §6, §7, §8
# PAK4 = target: T8, PAK4 (Homo sapiens, UniProt O96013)
# T8 construct: purchased DiscoverX (DiscoveRx) KINOMEscan scanEDGE / KdELECT
# Source text: as §1, §2, §3, §4, §5, §6, §7, §8
# PIM3 = target: T9, PIM3 (Homo sapiens, UniProt Q86V86)
# T9 construct: purchased DiscoverX (DiscoveRx) KINOMEscan scanEDGE / KdELECT
# Source text: as §1, §2, §3, §4, §5, §6, §7, §8
# KIT(D816H) = target: T10, KIT(D816H) (Homo sapiens, UniProt P10721, D816H)
# T10 construct: purchased DiscoverX (DiscoveRx) KINOMEscan scanEDGE / KdELECT
# Source text: as §1, §2, §3, §4, §5, §6, §7, §8
# TNK1 = target: T11, TNK1 (Homo sapiens, UniProt Q13470)
# T11 construct: purchased DiscoverX (DiscoveRx) KINOMEscan scanEDGE / KdELECT
# Source text: as §1, §2, §3, §4, §5, §6, §7, §8
# PCTK1 = target: T12, PCTK1 (Homo sapiens, UniProt Q00536)
# T12 construct: purchased DiscoverX (DiscoveRx) KINOMEscan scanEDGE / KdELECT
# Source text: as §1, §2, §3, §4, §5, §6, §7, §8
# PLK3 = target: T13, PLK3 (Homo sapiens, UniProt Q9H4B4)
# T13 construct: purchased DiscoverX (DiscoveRx) KINOMEscan scanEDGE / KdELECT
# Source text: as §1, §2, §3, §4, §5, §6, §7, §8
# MAP3K4 = target: T14, MAP3K4 (Homo sapiens, UniProt Q9Y6R4)
# T14 construct: purchased DiscoverX (DiscoveRx) KINOMEscan scanEDGE / KdELECT
# Source text: as §1, §2, §3, §4, §5, §6, §7, §8
# RAF1 = target: T15, RAF1 (Homo sapiens, UniProt P04049)
# T15 construct: purchased DiscoverX
# Source text: as §1, §2, §3, §4, §5, §6, §7, §8
# ULK2 = target: T16, ULK2 (Homo sapiens, UniProt Q8IYT8)
# T16 construct: purchased DiscoverX (DiscoveRx) KINOMEscan scanEDGE / KdELECT
# Source text: as §1, §2, §3, §4, §5, §6, §7, §8
# DCAMKL1 = target: T17, DCAMKL1 (Homo sapiens, UniProt O15075)
# T17 construct: purchased DiscoverX (DiscoveRx) KINOMEscan scanEDGE / KdELECT
# Source text: as §1, §2, §3, §4, §5, §6, §7, §8
# PIM1 = target: T18, PIM1 (Homo sapiens, UniProt P11309)
# T18 construct: purchased DiscoverX (DiscoveRx) KINOMEscan scanEDGE / KdELECT
# Source text: as §1, §2, §3, §4, §5, §6, §7, §8
# MEK1 = target: T19, MEK1 (Homo sapiens, UniProt Q02750)
# T19 construct: purchased DiscoverX (DiscoveRx) KINOMEscan scanEDGE / KdELECT
# Source text: as §1, §2, §3, §4, §5, §6, §7, §8
# AURKB = target: T20, AURKB (Homo sapiens, UniProt Q96GD4)
# T20 construct: purchased DiscoverX (DiscoveRx) KINOMEscan scanEDGE / KdELECT
# Source text: as §1, §2, §3, §4, §5, §6, §7, §8
# IKKEalpha = target: T21, IKKEalpha (Homo sapiens, UniProt O15111)
# T21 construct: purchased DiscoverX (DiscoveRx) KINOMEscan scanEDGE / KdELECT
# Source text: as §1, §2, §3, §4, §5, §6, §7, §8
# JNK3 = target: T22, JNK3 (Homo sapiens, UniProt P53779)
# T22 construct: purchased DiscoverX (DiscoveRx) KINOMEscan scanEDGE / KdELECT
# Source text: as §1, §2, §3, §4, §5, §6, §7, §8
# CSF1R = target: T23, CSF1R (Homo sapiens, UniProt P07333)
# T23 construct: purchased DiscoverX (DiscoveRx) KINOMEscan scanEDGE / KdELECT
# Source text: as §1, §2, §3, §4, §5, §6, §7, §8
# p38Ebeta = target: T24, p38Ebeta (Homo sapiens, UniProt Q15759)
# T24 construct: purchased DiscoverX (DiscoveRx) KINOMEscan scanEDGE / KdELECT
# Source text: as §1, §2, §3, §4, §5, §6, §7, §8
# ABL1EnP = target: T25, ABL1EnP (Homo sapiens, UniProt P00519)
# T25 construct: purchased DiscoverX (DiscoveRx) KINOMEscan scanEDGE / KdELECT
# Source text: as §1, §2, §3, §4, §5, §6, §7, §8
# RET = target: T26, RET (Homo sapiens, UniProt P07949)
# T26 construct: purchased DiscoverX (DiscoveRx) KINOMEscan scanEDGE / KdELECT
# Source text: as §1, §2, §3, §4, §5, §6, §7, §8
# ACVR2A = target: T27, ACVR2A (Homo sapiens, UniProt P27037)
# T27 construct: purchased DiscoverX (DiscoveRx) KINOMEscan scanEDGE / KdELECT
# Source text: as §1, §2, §3, §4, §5, §6, §7, §8
# ROCK2 = target: T28, ROCK2 (Homo sapiens, UniProt O75116)
# T28 construct: purchased DiscoverX (DiscoveRx) KINOMEscan scanEDGE / KdELECT
# Source text: as §1, §2, §3, §4, §5, §6, §7, §8
# FGFR2 = target: T29, FGFR2 (Homo sapiens, UniProt P21802)
# T29 construct: purchased DiscoverX (DiscoveRx) KINOMEscan scanEDGE / KdELECT
# Source text: as §1, §2, §3, §4, §5, §6, §7, §8
# PIK3CA = target: T30, PIK3CA (Homo sapiens, UniProt P42336)
# T30 construct: purchased DiscoverX (DiscoveRx) KINOMEscan scanEDGE / KdELECT
# Source text: as §1, §2, §3, §4, §5, §6, §7, §8
# PAK1 = target: T31, PAK1 (Homo sapiens, UniProt Q13153)
# T31 construct: purchased DiscoverX (DiscoveRx) KINOMEscan scanEDGE / KdELECT
# Source text: as §1, §2, §3, §4, §5, §6, §7, §8
# FGFR3 = target: T32, FGFR3 (Homo sapiens, UniProt P22607)
# T32 construct: purchased DiscoverX (DiscoveRx) KINOMEscan scanEDGE / KdELECT
# Source text: as §1, §2, §3, §4, §5, §6, §7, §8
# VEGFR2 = target: T33, VEGFR2 (Homo sapiens, UniProt P35968)
# T33 construct: purchased DiscoverX (DiscoveRx) KINOMEscan scanEDGE / KdELECT
# Source text: as §1, §2, §3, §4, §5, §6, §7, §8
# MARK3 = target: T34, MARK3 (Homo sapiens, UniProt P27448)
# T34 construct: purchased DiscoverX (DiscoveRx) KINOMEscan scanEDGE / KdELECT
# Source text: as §1, §2, §3, §4, §5, §6, §7, §8
# JNK2 = target: T35, JNK2 (Homo sapiens, UniProt P45984)
# T35 construct: purchased DiscoverX (DiscoveRx) KINOMEscan scanEDGE / KdELECT
# Source text: as §1, §2, §3, §4, §5, §6, §7, §8
# BRAF(V600E) = target: T36, BRAF(V600E) (Homo sapiens, UniProt P15056, V600E)
# T36 construct: purchased DiscoverX (DiscoveRx) KINOMEscan scanEDGE / KdELECT
# Source text: as §1, §2, §3, §4, §5, §6, §7, §8
# EPHA2 = target: T37, EPHA2 (Homo sapiens, UniProt P29317)
# T37 construct: purchased DiscoverX (DiscoveRx) KINOMEscan scanEDGE / KdELECT
# Source text: as §1, §2, §3, §4, §5, §6, §7, §8
# MEK2 = target: T38, MEK2 (Homo sapiens, UniProt P36507)
# T38 construct: purchased DiscoverX (DiscoveRx) KINOMEscan scanEDGE / KdELECT
# Source text: as §1, §2, §3, §4, §5, §6, §7, §8
# CDK3 = target: T39, CDK3 (Homo sapiens, UniProt Q00526)
# T39 construct: purchased DiscoverX (DiscoveRx) KINOMEscan scanEDGE / KdELECT
# Source text: as §1, §2, §3, §4, §5, §6, §7, §8
# CDK2 = target: T40, CDK2 (Homo sapiens, UniProt P24941)
# T40 construct: purchased DiscoverX (DiscoveRx) KINOMEscan scanEDGE / KdELECT
# Source text: as §1, §2, §3, §4, §5, §6, §7, §8
# T20 sequence (Q96GD4 whole entry): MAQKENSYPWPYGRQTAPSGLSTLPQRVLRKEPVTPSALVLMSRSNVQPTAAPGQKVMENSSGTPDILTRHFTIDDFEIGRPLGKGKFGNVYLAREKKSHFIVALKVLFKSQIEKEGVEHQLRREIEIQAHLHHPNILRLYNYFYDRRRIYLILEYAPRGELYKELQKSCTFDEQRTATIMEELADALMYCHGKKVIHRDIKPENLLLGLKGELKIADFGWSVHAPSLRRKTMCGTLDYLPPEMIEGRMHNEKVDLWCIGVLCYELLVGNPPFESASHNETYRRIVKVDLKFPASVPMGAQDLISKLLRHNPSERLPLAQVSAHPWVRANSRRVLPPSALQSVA
# T13 sequence (Q9H4B4 whole entry): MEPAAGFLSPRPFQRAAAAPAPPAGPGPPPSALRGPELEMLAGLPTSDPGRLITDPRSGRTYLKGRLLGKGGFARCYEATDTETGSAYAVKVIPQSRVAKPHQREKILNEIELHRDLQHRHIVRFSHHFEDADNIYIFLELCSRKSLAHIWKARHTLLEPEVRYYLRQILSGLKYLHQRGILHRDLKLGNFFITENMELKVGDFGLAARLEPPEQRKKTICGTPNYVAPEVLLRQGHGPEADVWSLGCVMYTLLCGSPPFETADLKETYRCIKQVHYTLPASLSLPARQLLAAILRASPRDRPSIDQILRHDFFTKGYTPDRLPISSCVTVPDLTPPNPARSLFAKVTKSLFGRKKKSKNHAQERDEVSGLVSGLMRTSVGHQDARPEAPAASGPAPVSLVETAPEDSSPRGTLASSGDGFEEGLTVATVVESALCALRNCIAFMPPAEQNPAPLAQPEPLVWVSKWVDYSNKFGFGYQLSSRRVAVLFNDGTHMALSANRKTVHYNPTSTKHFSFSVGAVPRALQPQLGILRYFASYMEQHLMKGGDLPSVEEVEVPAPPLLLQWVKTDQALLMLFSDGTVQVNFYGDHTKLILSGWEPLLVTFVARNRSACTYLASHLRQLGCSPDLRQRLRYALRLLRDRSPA
# T10 sequence (P10721 26-976 D816H): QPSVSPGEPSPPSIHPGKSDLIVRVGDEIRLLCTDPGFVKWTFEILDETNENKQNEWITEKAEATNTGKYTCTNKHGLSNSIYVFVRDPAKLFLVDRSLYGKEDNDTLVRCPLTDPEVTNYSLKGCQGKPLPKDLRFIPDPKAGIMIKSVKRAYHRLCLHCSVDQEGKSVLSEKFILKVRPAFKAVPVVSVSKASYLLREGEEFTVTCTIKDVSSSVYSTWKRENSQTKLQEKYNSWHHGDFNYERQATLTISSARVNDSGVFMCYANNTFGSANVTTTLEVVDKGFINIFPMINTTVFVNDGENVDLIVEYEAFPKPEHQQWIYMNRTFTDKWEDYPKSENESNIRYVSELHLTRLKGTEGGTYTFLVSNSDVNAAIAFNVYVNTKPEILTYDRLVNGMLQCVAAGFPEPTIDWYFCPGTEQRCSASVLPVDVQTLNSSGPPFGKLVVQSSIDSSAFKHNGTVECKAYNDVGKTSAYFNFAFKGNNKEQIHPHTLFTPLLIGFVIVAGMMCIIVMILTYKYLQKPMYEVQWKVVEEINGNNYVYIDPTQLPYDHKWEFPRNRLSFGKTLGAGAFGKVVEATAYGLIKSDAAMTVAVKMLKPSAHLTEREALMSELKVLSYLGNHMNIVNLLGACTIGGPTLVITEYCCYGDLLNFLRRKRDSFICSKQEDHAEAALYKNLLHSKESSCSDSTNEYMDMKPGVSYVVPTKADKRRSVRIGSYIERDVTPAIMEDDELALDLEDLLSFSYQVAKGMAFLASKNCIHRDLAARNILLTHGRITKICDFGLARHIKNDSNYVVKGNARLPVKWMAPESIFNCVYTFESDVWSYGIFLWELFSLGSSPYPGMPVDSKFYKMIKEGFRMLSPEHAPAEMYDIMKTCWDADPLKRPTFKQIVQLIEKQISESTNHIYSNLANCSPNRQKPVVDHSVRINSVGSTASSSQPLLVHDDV
# T29 sequence (P21802 22-821): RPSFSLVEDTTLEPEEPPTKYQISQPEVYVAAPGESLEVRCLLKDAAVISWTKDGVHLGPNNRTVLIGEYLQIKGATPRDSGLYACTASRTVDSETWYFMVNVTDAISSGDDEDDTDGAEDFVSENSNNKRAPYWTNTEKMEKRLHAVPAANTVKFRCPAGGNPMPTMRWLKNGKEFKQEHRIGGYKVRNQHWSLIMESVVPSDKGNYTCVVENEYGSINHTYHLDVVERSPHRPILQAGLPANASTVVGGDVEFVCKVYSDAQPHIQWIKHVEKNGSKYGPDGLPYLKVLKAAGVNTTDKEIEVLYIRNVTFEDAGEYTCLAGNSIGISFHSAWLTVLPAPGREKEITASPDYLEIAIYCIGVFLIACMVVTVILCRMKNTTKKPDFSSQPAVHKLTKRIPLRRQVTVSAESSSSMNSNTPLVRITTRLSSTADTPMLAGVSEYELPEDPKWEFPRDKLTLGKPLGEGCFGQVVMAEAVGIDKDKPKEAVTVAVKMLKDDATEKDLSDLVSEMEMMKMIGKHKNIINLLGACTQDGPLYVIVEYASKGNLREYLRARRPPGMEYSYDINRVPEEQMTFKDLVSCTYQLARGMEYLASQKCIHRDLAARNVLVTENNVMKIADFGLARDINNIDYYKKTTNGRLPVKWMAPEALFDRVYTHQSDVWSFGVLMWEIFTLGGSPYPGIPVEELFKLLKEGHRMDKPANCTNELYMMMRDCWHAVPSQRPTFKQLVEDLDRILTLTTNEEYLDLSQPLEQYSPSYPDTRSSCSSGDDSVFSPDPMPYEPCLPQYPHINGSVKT
# T27 sequence (P27037 20-513): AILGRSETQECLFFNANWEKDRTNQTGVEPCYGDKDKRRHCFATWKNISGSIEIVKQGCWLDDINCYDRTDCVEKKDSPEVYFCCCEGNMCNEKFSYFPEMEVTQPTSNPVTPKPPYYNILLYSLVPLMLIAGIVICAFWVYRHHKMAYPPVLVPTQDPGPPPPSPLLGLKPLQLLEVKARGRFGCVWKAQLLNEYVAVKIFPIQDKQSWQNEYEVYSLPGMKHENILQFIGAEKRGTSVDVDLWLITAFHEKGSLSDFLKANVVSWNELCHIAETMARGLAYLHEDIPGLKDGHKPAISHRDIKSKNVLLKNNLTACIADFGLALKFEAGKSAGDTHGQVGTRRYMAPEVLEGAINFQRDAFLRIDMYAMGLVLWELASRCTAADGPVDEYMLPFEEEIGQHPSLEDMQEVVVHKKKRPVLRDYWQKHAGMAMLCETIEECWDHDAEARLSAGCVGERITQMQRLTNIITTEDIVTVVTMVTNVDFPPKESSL
# T37 sequence (P29317 24-976): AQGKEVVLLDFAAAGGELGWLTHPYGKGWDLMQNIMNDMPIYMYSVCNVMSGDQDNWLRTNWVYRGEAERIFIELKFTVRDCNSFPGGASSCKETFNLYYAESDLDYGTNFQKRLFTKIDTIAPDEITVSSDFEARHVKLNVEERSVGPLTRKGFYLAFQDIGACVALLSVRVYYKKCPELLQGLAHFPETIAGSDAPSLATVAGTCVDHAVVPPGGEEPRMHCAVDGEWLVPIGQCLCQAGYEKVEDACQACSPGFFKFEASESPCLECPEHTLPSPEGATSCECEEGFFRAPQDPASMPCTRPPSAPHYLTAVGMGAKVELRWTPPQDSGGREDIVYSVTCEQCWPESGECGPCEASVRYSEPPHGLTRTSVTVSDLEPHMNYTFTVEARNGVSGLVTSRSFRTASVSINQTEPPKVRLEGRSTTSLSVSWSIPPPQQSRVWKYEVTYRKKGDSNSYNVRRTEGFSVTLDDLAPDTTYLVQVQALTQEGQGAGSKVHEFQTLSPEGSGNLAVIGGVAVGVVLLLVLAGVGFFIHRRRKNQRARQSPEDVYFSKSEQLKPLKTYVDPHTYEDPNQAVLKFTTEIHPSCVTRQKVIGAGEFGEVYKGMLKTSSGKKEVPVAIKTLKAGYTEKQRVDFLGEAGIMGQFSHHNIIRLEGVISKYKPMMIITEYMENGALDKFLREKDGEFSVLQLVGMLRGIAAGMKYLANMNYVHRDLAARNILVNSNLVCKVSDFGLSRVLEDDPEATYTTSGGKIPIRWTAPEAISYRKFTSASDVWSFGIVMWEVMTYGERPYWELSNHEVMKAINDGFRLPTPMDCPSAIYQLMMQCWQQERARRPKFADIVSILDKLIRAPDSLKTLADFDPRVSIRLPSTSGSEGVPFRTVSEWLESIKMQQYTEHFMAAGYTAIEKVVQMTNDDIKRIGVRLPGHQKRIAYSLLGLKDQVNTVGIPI
# T38 sequence (P36507 whole entry): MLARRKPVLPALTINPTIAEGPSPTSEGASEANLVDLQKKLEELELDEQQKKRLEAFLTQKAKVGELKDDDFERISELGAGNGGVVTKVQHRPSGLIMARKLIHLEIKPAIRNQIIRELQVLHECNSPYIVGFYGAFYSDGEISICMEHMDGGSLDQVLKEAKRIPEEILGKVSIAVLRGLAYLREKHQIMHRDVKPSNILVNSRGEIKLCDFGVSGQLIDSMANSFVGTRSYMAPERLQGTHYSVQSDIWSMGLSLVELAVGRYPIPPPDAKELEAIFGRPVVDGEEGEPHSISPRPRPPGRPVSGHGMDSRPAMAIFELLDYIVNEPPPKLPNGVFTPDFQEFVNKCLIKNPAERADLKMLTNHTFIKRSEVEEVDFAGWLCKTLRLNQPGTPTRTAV
# T35 sequence (P45984 whole entry): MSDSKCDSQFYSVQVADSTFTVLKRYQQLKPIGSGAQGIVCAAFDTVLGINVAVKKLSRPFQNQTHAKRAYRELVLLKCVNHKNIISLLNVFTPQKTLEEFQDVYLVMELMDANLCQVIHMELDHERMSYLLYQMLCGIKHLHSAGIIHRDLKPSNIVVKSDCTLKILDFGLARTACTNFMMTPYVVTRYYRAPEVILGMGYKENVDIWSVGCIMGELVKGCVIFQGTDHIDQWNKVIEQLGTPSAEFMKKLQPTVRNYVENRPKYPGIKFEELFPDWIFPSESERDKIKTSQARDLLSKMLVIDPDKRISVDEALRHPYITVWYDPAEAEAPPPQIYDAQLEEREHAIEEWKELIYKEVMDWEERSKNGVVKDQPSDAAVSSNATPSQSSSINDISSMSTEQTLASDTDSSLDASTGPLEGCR
smiles,measurement,setting,value
"Cc1nc2ccc(-c3ccnc4ccccc34)c(C)c2c(=O)[nH]1 [compound 21, 2,5-Dimethyl-6-(quinolin-4-yl)quinazolin-4(3H)-one]",remaining binding at 1 µM,BMPR1B (ALK6),1.6%
same,remaining binding at 1 µM,EGFR,98%
same,remaining binding at 1 µM,SRC,98%
same,remaining binding at 1 µM,PIK3C2B,98%
same,remaining binding at 1 µM,BMPR2,76%
same,remaining binding at 1 µM,BMPR1A (ALK3),65%
same,remaining binding at 1 µM,CDK11,90%
same,remaining binding at 1 µM,PAK4,62%
same,remaining binding at 1 µM,PIM3,98%
same,remaining binding at 1 µM,KIT(D816H),90%
same,remaining binding at 1 µM,TNK1,90%
same,remaining binding at 1 µM,PCTK1,94%
same,remaining binding at 1 µM,PLK3,96%
same,remaining binding at 1 µM,MAP3K4,90%
same,remaining binding at 1 µM,RAF1,25%
same,remaining binding at 1 µM,ULK2,77%
same,remaining binding at 1 µM,DCAMKL1,87%
same,remaining binding at 1 µM,PIM1,60%
same,remaining binding at 1 µM,MEK1,85%
same,remaining binding at 1 µM,AURKB,94%
same,remaining binding at 1 µM,IKKEalpha,100%
same,remaining binding at 1 µM,JNK3,79%
same,remaining binding at 1 µM,CSF1R,95%
same,remaining binding at 1 µM,p38Ebeta,99%
same,remaining binding at 1 µM,ABL1EnP,91%
same,remaining binding at 1 µM,RET,99%
same,remaining binding at 1 µM,ACVR2A,83%
same,remaining binding at 1 µM,ROCK2,100%
same,remaining binding at 1 µM,FGFR2,100%
same,remaining binding at 1 µM,PIK3CA,100%
same,remaining binding at 1 µM,PAK1,96%
same,remaining binding at 1 µM,FGFR3,100%
same,remaining binding at 1 µM,VEGFR2,99%
same,remaining binding at 1 µM,MARK3,83%
same,remaining binding at 1 µM,JNK2,91%
same,remaining binding at 1 µM,BRAF(V600E),11%
same,remaining binding at 1 µM,EPHA2,100%
same,remaining binding at 1 µM,MEK2,79%
same,remaining binding at 1 µM,CDK3,94%
same,remaining binding at 1 µM,CDK2,100%
